Earlier results, collected in US20220347170A1, “Method of Reducing Brow Ache” (priority 2021, published 2022).

Conditions: aceclidine alone; U.S. Pat. Nos. 9,089,562, 9,833,441 and 9,314,427

## CC(=O)OC1CN2CCC1CC2 (stereo not shown) [aceclidine]
  brow ache: significant brow ache
